Reference: US12161689B2, “Anti-infective formulations” (NEW MEXICO TECH UNIVERSITY RESEARCH PARK CORPORATION, priority 2018, dated 2024)
Where a SMILES comes first, the peptide text is derived from it. Bridges are numbered along the chain shown (N, C = ends). [ ]: non-standard residue; d: D form. The star is where a group is joined. Ileψ(thiazoline)Cys = CC[C@H](C)[C@H](N)C1=N[C@H](C(=O)*)CS1; dOrn = NCCC[C@@H](N)C(=O)O

Tests used:
red blood cells = assay: Hemolysis on blood agar plate; conditions: 5 μL spotted; refrigerated overnight
[1] = tested on: Escherichia coli (O157:H7) (ATCC 51657); assay: Spot on lawn, MHA plate: killing / diameter of clearance; format: cell-based; set-up: key to antibacterial activity: “+” indicates antibacterial activity with complete clearing; “−” indicates no antibacterial activity; conditions: for antibacterial activity: 24 to 48 hours at 37° C.
Yesenia pestis (Kimo 6) = format: cell-based, Yersinia pestis; conditions: 10 μL spot; for antibacterial activity: Yersinia pestis KIM6, 24 to 48 hours at 37° C.; for efficacy against Yesenia pestis (Kimo 6), comparison with antibiotics: incubation period of 1 day
[2] = tested on: multi-drug-resistant E. coli CDC AR0493; assay: Spot on lawn, MHA plate: killing; format: cell-based; conditions: 10 μL spot, 24 to 48 hours at 37° C.
[3] = tested on: Mycobacterium abscessus (ATCC 19977); assay: Spot on lawn, MHA plate: killing / diameter of clearance; format: cell-based; set-up: key: “+” indicates antibacterial activity with complete clearing; “−” indicates no antibacterial activity; conditions: 10 μL spot, 24 to 48 hours at 37° C.
Streptococcus pyogenes = assay: as above; format: cell-based; set-up: key to antibacterial activity: “+” indicates antibacterial activity with complete clearing; “−” indicates no antibacterial activity; conditions: for antibacterial activity / killing of Streptococcus pyogenes: 10 μL spot; for antibacterial activity: 24 to 48 hours at 37° C.; for killing of Streptococcus pyogenes: incubation period of 1 day; for killing of S. pyogenes: after 7 days of incubation
[4] = tested on: Vancomycin-resistant enterococcus (VRE) (ATCC 51299); assay: as above; format: cell-based; set-up: key to antibacterial activity: “+” indicates antibacterial activity with complete clearing; “−” indicates no antibacterial activity; conditions: 10 μL spot; for antibacterial activity: 24 to 48 hours at 37° C.
[5] = tested on: CRE NDM-1 MDR (ATCC BAA 2146); assay: as above; format: cell-based, Enterobacteriaceae; set-up: key to antibacterial activity: “+” indicates antibacterial activity with complete clearing; “−” indicates no antibacterial activity; conditions: for antibacterial activity: 24 to 48 hours at 37° C.
[6] = tested on: Stenotrophomonas maltophilia (ATCC 13637); assay: as above; format: cell-based; set-up: key: “+” indicates antibacterial activity with complete clearing; “−” indicates no antibacterial activity; conditions: S. maltophilia (ATCC 13637); 10 μL spot; 24 to 48 hours at 37° C.
MRSA (ATCC BAA44) = assay: as above; format: cell-based, Staphylococcus aureus; conditions: for antibacterial activity: 24 to 48 hours at 37° C.
[7] = tested on: multi-drug resistant Pseudomonas aeruginosa (ATCC 2114); assay: as above; format: cell-based; conditions: 10 μL spot; for antibacterial activity: 24 to 48 hours at 37° C.
[8] = tested on: multi-drug resistant Acinetobacter baumannii (ATCC 1797); assay: as above; format: cell-based; conditions: 10 μL spot; for antibacterial activity: 24 to 48 hours at 37° C.
[9] = tested on: Bacillus subtilis (ATCC 6633); assay: as above; format: cell-based; conditions: 10 μL spot; incubation period of 1 day
MRSA BAA-1717 (USA 300) = assay: as above; conditions: 10 μL; overnight at 37° C. (FIG. 63)
[10] = tested on: Salmonella enteriditis CDC AR0496; assay: Spot on lawn, MHA plate: killing; format: cell-based; conditions: 10 μL spot, 24 to 48 hours at 37° C.
MCR-1 E. coli (AR 0350) = assay: Spot on lawn, MHA plate: killing; format: cell-based; conditions: 10 μL drops; 1 day at 37° C.
From the text: An overnight growth of MCR-1 E. coli (AR 0350) was made in MHB, and was spread undiluted onto a MHA plate.

[11] = tested on: multi-drug resistant E. coli (AR 0348); assay: Spot on lawn, MHA plate: killing; format: cell-based; conditions: 10 μL; 1 day at 37° C.
Experimental: An overnight growth of multi-drug resistant E. coli (AR 0348) was made in MHB. The samples were diluted 1:1000, and spread onto a MHA plate.

[12] = tested on: multi-drug resistant E. coli (AR 0346); assay: Spot on lawn, MHA plate: killing; format: cell-based; conditions: 10 μL; 3 days at 37° C.
Experimental: An overnight growth of multi-drug resistant E. coli (AR 0346) was made in MHB. The samples were diluted 1:1000, and spread onto a MHA plate.

[13] = tested on: multi-drug resistant Burkholderia cepacia (ATCC 10856); assay: Spot on lawn, MHA plate: killing / diameter of clearance; format: cell-based; conditions: for killing of multi-drug resistant Burkholderia cepacia: 10 μL, overnight at 37° C. (FIG. 63); for antibacterial activity: 10 μL spot, 24 to 48 hours at 37° C.
[14] = tested on: Shigella flexneri 85W 2332; assay: Spot on lawn, MHA plate: killing; format: cell-based; conditions: 10 μL spot, 24 to 48 hours at 37° C.
[15] = E. Coli (O157:H7) (ATCC 51657), 10 μL spot
[16] = Mycobacterium abscessus ATCC19977
[17] = Streptococcus pyogenes 85W 1180
[18] = CRE NDM-1 (MDR) ATCC BAA-2146, 10 μL spot
[19] = CRE NDM-1 MDR (ATCC BAA 2146), 10 μL spot
[20] = 10 μL spot, incubation period of 1 day
[21] = Burkholderia cepacia ATCC 10856

O=C(O)c1ccccc1O [2% salicylic acid, salicylic acid]
blood hemolysis (red blood cells): little to no hemolysis

CC[C@H](C)[C@H](N)C1=N[C@H](C(=O)N[C@@H](CC(C)C)C(=O)N[C@H](CCC(=O)O)C(=O)N[C@H](C(=O)N[C@H]2CCCCNC(=O)[C@H](CC(N)=O)NC(=O)[C@@H](CC(=O)O)NC(=O)[C@H](Cc3cnc[nH]3)NC(=O)[C@@H](Cc3ccccc3)NC(=O)[C@H]([C@@H](C)CC)NC(=O)[C@@H](CCCN)NC2=O)[C@@H](C)CC)CS1 [Bacitracin] ({Ileψ(thiazoline)Cys}-L[dE]IK[dOrn]I[dF]H[dD]N; lactam 4-C)
antibacterial activity [1, 15]: −
antibacterial activity ([1]; E. coli O157:H7, 10 μL spot): −
antibacterial activity (Yesenia pestis (Kimo 6)): −
antibacterial activity [2]: −
antibacterial activity ([3]; M. abscessus (ATCC 19977)): −
antibacterial activity [3, 16]: −
antibacterial activity (Streptococcus pyogenes; S. pyogenes): −
antibacterial activity (Streptococcus pyogenes; [17]): −
killing of VRE ([4]; incubation period of 1 day): killed
antibacterial activity ([4]; VRE (ATCC 51299)): −
antibacterial activity ([4]; VRE): −
antibacterial activity [5, 18]: −
antibacterial activity [5, 19]: −
antibacterial activity [6]: −
antibacterial activity (MRSA (ATCC BAA44); MRSA (ATCC BAA44), 10 μL spot): −
antibacterial activity (MRSA (ATCC BAA44); MRSA ATCC BAA-44, 10 μL spot): −
antibacterial activity ([7]; P. aeruginosa MDR (ATCC 2114)): −
antibacterial activity ([7]; P. aeruginosa MDR ATCC 2114): −
antibacterial activity ([8]; A. Baumannii MDR (ATCC 1797)): −
antibacterial activity ([8]; A. baumannii MDR ATCC 1797): −

C/C(=C\C(=O)OCCCCCCCCC(=O)O)C[C@@H]1OC[C@H](C[C@@H]2O[C@H]2[C@@H](C)[C@H](C)O)[C@@H](O)[C@H]1O [Mupirocin]
killing of Bacillus subtilis [9]: killed
killing of MRSA BAA-1717 (USA 300) (MRSA BAA-1717 (USA 300)): killed
antibacterial activity [10]: +
killing of Escherichia coli (O157:H7) [1, 20]: killed
antibacterial activity [1, 15]: +
antibacterial activity ([1]; E. coli O157:H7, 10 μL spot): +
killing of Escherichia coli (O157:H7) ([1]; after 5 days of incubation): only formulations that killed
regrowth of Escherichia coli (O157:H7) ([1]; after 5 days of incubation): not observed
efficacy against Yesenia pestis (Kimo 6), comparison with antibiotics (Yesenia pestis (Kimo 6)): more effective than MM8
antibacterial activity (Yesenia pestis (Kimo 6)): +
antibacterial activity [2]: +
killing of MCR-1 E. coli (AR 0350; colisitin-resistance only) (MCR-1 E. coli (AR 0350)): fully killed
antibacterial activity ([3]; M. abscessus (ATCC 19977)): −
antibacterial activity [3, 16]: −
killing of multi-drug resistant E. coli (AR 0348) [11]: fully killed
killing of Streptococcus pyogenes (Streptococcus pyogenes): killed
antibacterial activity (Streptococcus pyogenes; S. pyogenes): +
antibacterial activity (Streptococcus pyogenes; [17]): +
killing of S. pyogenes (Streptococcus pyogenes): further killed
killing of multi-drug resistant E. coli (AR 0346) [12]: fully killed
antibacterial activity ([4]; VRE (ATCC 51299)): −
antibacterial activity ([4]; VRE): −
killing of multi-drug resistant Burkholderia cepacia [13]: killed
antibacterial activity ([13]; B. cepacia (ATCC 10856)): +
antibacterial activity [13, 21]: +
killing of CRE NDM-1 MDR [5, 20]: killed
antibacterial activity [5, 18]: −
antibacterial activity [5, 19]: −
killing of CRE NDM-1 MDR ([5]; after 5 days of incubation): only formulations that killed
regrowth of CRE NDM-1 MDR ([5]; after 5 days of incubation): not observed
antibacterial activity [14]: +
antibacterial activity [6]: −
killing of MRSA (MRSA (ATCC BAA44); 10 μL spot, incubation period of 1 day (FIG. 52)): killed
antibacterial activity (MRSA (ATCC BAA44); MRSA (ATCC BAA44), 10 μL spot): +
antibacterial activity (MRSA (ATCC BAA44); MRSA ATCC BAA-44, 10 μL spot): +
killing of MRSA (MRSA (ATCC BAA44); after 4 days of incubation): only formulations that killed
regrowth of MRSA (MRSA (ATCC BAA44); after 4 days of incubation): not observed
killing of multi-drug resistant Pseudomonas aeruginosa ([7]; incubation period of 1 day (FIG. 55)): killed
antibacterial activity ([7]; P. aeruginosa MDR (ATCC 2114)): +
antibacterial activity ([7]; P. aeruginosa MDR ATCC 2114): +
killing of A. baumannii ([8]; incubation period of 1 day (FIG. 54)): killed
antibacterial activity ([8]; A. Baumannii MDR (ATCC 1797)): −
antibacterial activity ([8]; A. baumannii MDR ATCC 1797): −

O=C(OOC(=O)c1ccccc1)c1ccccc1 [benzoyl peroxide]
blood hemolysis (red blood cells): complete hemolysis

Neomycin
killing of Bacillus subtilis [9]: killed
killing of Escherichia coli (O157:H7) [1, 20]: killed
antibacterial activity [1, 15]: +
antibacterial activity ([1]; E. coli O157:H7, 10 μL spot): +
killing of Escherichia coli (O157:H7) ([1]; after 5 days of incubation): only formulations that killed
regrowth of Escherichia coli (O157:H7) ([1]; after 5 days of incubation): not observed
efficacy against Yesenia pestis (Kimo 6), comparison with antibiotics (Yesenia pestis (Kimo 6)): more effective than MM8
antibacterial activity (Yesenia pestis (Kimo 6)): −
antibacterial activity [2]: −
antibacterial activity ([3]; M. abscessus (ATCC 19977)): −
antibacterial activity [3, 16]: −
killing of Streptococcus pyogenes (Streptococcus pyogenes): killed
regrowth of Streptococcus pyogenes colonies in treated area (Streptococcus pyogenes; FIG. 59, 7 days): colonies invaded
antibacterial activity (Streptococcus pyogenes; S. pyogenes): +
antibacterial activity (Streptococcus pyogenes; [17]): +
killing of S. pyogenes (Streptococcus pyogenes): further killed
antibacterial activity ([4]; VRE (ATCC 51299)): −
antibacterial activity ([4]; VRE): −
killing of multi-drug resistant Burkholderia cepacia [13]: killed
antibacterial activity ([13]; B. cepacia (ATCC 10856)): −
antibacterial activity [13, 21]: −
antibacterial activity [5, 18]: −
antibacterial activity [5, 19]: −
antibacterial activity [6]: +
antibacterial activity (MRSA (ATCC BAA44); MRSA (ATCC BAA44), 10 μL spot): −
antibacterial activity (MRSA (ATCC BAA44); MRSA ATCC BAA-44, 10 μL spot): −
antibacterial activity ([7]; P. aeruginosa MDR (ATCC 2114)): −
antibacterial activity ([7]; P. aeruginosa MDR ATCC 2114): −
antibacterial activity ([8]; A. Baumannii MDR (ATCC 1797)): −
antibacterial activity ([8]; A. baumannii MDR ATCC 1797): −
